The text below walks through data of PubChem BioAssay AID179 (DTP/NCI, 2004).

The structures appear in SMILES notation. Several values for one entry are separate records, joined by “and”; a condition that tells them apart may be missing. Equal entries are not always repeated. Activity calls are given as the source filed them.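 The calls were made as follows: active = compounds giving half or more protection of infected cells from virus-caused growth loss, again on retest; inactive = the rest.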 Where a SMILES comes first, the peptide text is derived from it. Some results are limits rather than exact numbers.

This assay concerns CEM cells HIV-1 protection, formazan growth assay. Kind of assay: NCI AIDS Antiviral Assay. Particulars: for IC50: measured here: growth of uninfected CEM cells. The essentials: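 Soluble formazan readout of cell growth; CEM cells ± HIV-1; 5 drug concs. ≥50% protection → retest; ≥50% again = moderately active; reproducible 100% = confirmed active.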

As for `CCCCOC(=O)N(CCCC)c1ccccc1`, the EC50 (commonly the midpoint of the concentration-response curve) was more than 200 µM and the IC50 (usually the concentration needed to halve the response being measured) is 151 µM.

Take `C=C(Nc1ccc([N+](=O)[O-])cc1[N+](=O)[O-])c1c/c(=N\NC(N)=S)c2ccccc2o1`: the EC50 is more than 117 µM and the IC50 was more than 117 µM.

`COc1ccc2c(c1)CCc1c(C(C)=O)c3ccccc3n1C2`: the EC50 was more than 58.9 µM and the IC50 is more than 58.9 µM.

For `Nc1ncnc2c1N=C(c1ccccc1)CC(c1ccccc1)N2` (stereo not given), the EC50 was more than 200 µM and the IC50 is more than 200 µM.

Regarding `NC(CSSCC(NC(=O)c1ccccc1)C(=O)O)C(=O)O` (stereo not given), the EC50 is more than 200 µM and the IC50 is more than 200 µM.

For `COc1cc(/C=C(\NC(=O)c2ccccc2)c2nc3ccc([N+](=O)[O-])cc3[nH]2)cc(OC)c1OC`, the outcome was inactive.

Consider `Nc1c(Br)cc(/C=C2\C=Cc3ccccc32)cc1Br`, for which the EC50 is more than 10 µM and the IC50 is more than 10 µM.

For `CCOC(=O)CC(=O)NC1CC2CCC1(C)C2(C)C` (stereo not given), the EC50 is more than 200 µM and the IC50 was more than 200 µM.

For `Cc1c(C(=O)Nc2ccc(Cl)c(C(F)(F)F)c2)oc2cc(O)ccc2/c1=N\NC(N)=S`, the EC50 is more than 525 µM and the IC50 is 112 µM.

Turning to `O=C1COCC(=O)N1`, the EC50 is more than 2190 µM and the IC50 is more than 2190 µM.

As for `O=C(O)c1c(F)c(F)c(S)c(F)c1F`, the EC50 is 17.8 µM and the IC50 is more than 200 µM.

For `c1ccc2c3csccc-3nc2c1`, the EC50 is more than 200 µM and the IC50 was 97.7 µM.

`Cc1cc(C)c(C(=O)c2cccc(C)c2C(=O)O)c(C)c1`: the concentration giving a half-maximal response (EC50) was more than 200 µM and the IC50 is more than 200 µM.

Take `BrC1=CC2C(C3C=CC2(Br)C32OCCO2)C12OCCO2` (stereo not given): the EC50 is more than 166 µM and the IC50 was more than 166 µM.

As to `C=CCC1(C)CCCN(Cc2ccccc2)C1=O` (stereo not given), the EC50 is more than 200 µM and the IC50 is 105 µM.

As for `O=C(Nc1ccccn1)NC1CCCCC1`, the EC50 was more than 200 µM and the IC50 worked out at 195 µM.

In the case of `CC1(C)C(O)CC[C@@]2(C)C1CC[C@]1(C)C2CC=C2[C@@H]3C[C@](C)(C(=O)O)CC[C@]3(C)CCC21C` (stereo not given in full), the EC50 was more than 200 µM and the IC50 came to 27.5 µM.

In the case of `CC(=O)OCC1OC(OCCCOP(=O)(OCCC#N)OCC2OC(n3cnc4c(N)ncnc43)C(OC(=O)c3ccccc3)C2OC(=O)c2ccccc2)C(OC(C)=O)C(OC(C)=O)C1OC(C)=O` (stereo not given), the EC50 is more than 100 µM and the IC50 is more than 100 µM.

On to `CCCCCCCCCN1CCC(=O)C(C(=O)OC)C1` (stereo not given), for which the EC50 is more than 200 µM and the IC50 stood at 4.68 µM.

As to `O=c1cccc2n1CC1CNCC2C1` (stereo not given), the EC50 is more than 200 µM and the IC50 is more than 200 µM.

On to `Cc1nnc2c3nccnc3c(N)nn12`, for which the EC50 is more than 200 µM and the IC50 was more than 200 µM.

Take `CCCCCCCCCCCCCCCC=C(c1cc(Br)c(O)c(C(=O)O)c1)c1cc(Br)c(O)c(C(=O)O)c1`: the EC50 was more than 112 µM and the IC50 is 53.7 µM.

Turning to `CCc1c(Cc2ccccc2)n(COCCCO)c(=O)[nH]c1=O`, the concentration for a half-maximal effect (EC50) was 7.08 µM and the IC50 came out at 10 µM.

Consider `CC(=O)CC(=O)ON(C)C(=O)Cc1ccccc1`, for which the EC50 was more than 1000 µM and the IC50 was more than 1000 µM.

Regarding `Cc1cc(/C=C/c2cc[n+](C)c3ccccc23)c(O)c2ncccc12`, the EC50 was more than 398 µM and the IC50 was determined as 0.759 µM.

As to `CS(=O)(=O)CS(=O)CS(=O)CS(=O)CC(NC(=O)CCC(N)C(=O)O)C(=O)O` (stereo not given), the EC50 was more than 513 µM and the IC50 is more than 513 µM.

As to `COc1ccccc1NC(=S)N/N=C/c1cccc(C)n1`, the EC50 was more than 200 µM and the half-maximal inhibitory concentration (IC50) amounted to 2.75 µM.

With `O=c1[nH]c(=O)n(C2CC(O)C(CO)O2)cc1NN=NCCc1ccccc1` (stereo not given), the EC50 is more than 200 µM and the IC50 is more than 200 µM.

Take `CCOC(=O)C(C)c1nc2cc(C(F)(F)F)ccc2[nH]c1=O` (stereo not given): the EC50 was more than 200 µM and the IC50 is 81.3 µM.

In the case of `COc1cc(O)c2c(c1)C(=O)c1cc3c(c(O)c1C2=O)C(OC1OC(C)C(O)C(O)C1OC)C(OC)C(C)(O)C3=O` (stereo not given), the EC50 is more than 200 µM and the half-inhibitory concentration (IC50) was determined as 3.16 µM.

As for `CN(C)CC(CO)(CN(C)C)CN(C)C`, the EC50 is more than 200 µM and the IC50 is more than 200 µM.

For the compound `OCC1C(CO)C2CCC1C2(c1ccccc1)c1ccccc1` (stereo not given), the EC50 is more than 95.5 µM and the IC50 was found to be 60.3 µM.

As for `CC(=O)Oc1ccc(C2(c3ccc(OC(C)=O)cc3)C(=O)Nc3ccccc32)cc1`, the EC50 is more than 200 µM; the IC50 is 35.5 µM and 36.3 µM.

In the case of `COC1CC(OC2C(C)OC(OC3C(C)OC(OC4C(C)OC(O[C@H]5CC[C@@]6(C)C(=CC[C@]7(O)[C@@H]6C[C@@H](OC(=O)/C=C(\C)C(C)C)[C@@]6(C)[C@]7(O)CC[C@@]6(O)C(C)=O)C5)CC4OC)CC3OC)CC2OC)OC(C)C1O` (stereo not given in full), the EC50 was more than 200 µM and the IC50 was 27.5 µM.

For the compound `O=S(=O)([O-])[O-].O=c1[nH]cnc2nc[n-]c12.[Cu+2].[OH3+].[OH3+]`, the EC50 was more than 10.7 µM and the IC50 is more than 10.7 µM.

Regarding `COc1cc(C2OCC3C(c4ccc(O)c(OC)c4)OCC23)ccc1O` (stereo not given), the outcome was inactive.

Take `O=C(CC(c1ccc2c(c1)OCO2)N1CCN(C(CC(=O)c2ccc(Br)cc2)c2ccc3c(c2)OCO3)CC1)c1ccc(Br)cc1` (stereo not given): the EC50 is more than 200 µM and the IC50 is more than 200 µM.

As to `O=C(O)[C@@H](NS(=O)(=O)c1ccc2ccccc2c1)c1ccccc1`, the result was inactive.

In the case of `N#Cc1cccc(C=C2C(=O)c3ccccc3C2=O)c1`, the EC50 was more than 36.3 µM and the IC50 is more than 36.3 µM.

For `O=C1N=C2Sc3ccc4ccccc4c3N2C1=O`, the EC50 was more than 355 µM and the IC50 worked out at 182 µM.

For the compound `COC(=O)C(Cc1ccccc1)NP(=O)(O)OCC1OC(n2cc(Br)c(=O)[nH]c2=O)CC1O` (stereo not given), the EC50 was more than 200 µM and the IC50 is more than 200 µM.

In the case of `CC1(C)CN(CCC#N)C(c2ccc([N+](=O)[O-])cc2)O1` (stereo not given), the EC50 is more than 200 µM and the IC50 turned out to be 102 µM.

In the case of `CSc1cc(-c2ccccn2)nc(-c2ccccn2)c1`, the EC50 was more than 2 µM and the 50% inhibitory concentration (IC50) was determined as 0.269 µM.

With `CC(=O)OC[C@@H](COC(=O)/C=C/c1ccc(O)cc1)OC1OC(CO)C(O)C(O)C1O` (stereo not given in full), the result was inactive.

On to `COC(=O)c1ccc2cc1Nc1c(C#N)cnc(=S)n1-2`, for which the EC50 is more than 603 µM and the IC50 turned out to be 363 µM.

As for `COc1ccc2c(=O)c(S)coc2c1`, the EC50 is more than 200 µM and the half-maximal inhibitory concentration (IC50) was 30.2 µM.

As for `O=C(N/C(=C\c1ccc(F)cc1)c1nc2ccccc2[nH]1)c1ccccc1`, the EC50 was more than 191 µM and the IC50 was more than 191 µM.

Consider `CC(C)(C)C(=O)OCOP(=O)(OCOC(=O)C(C)(C)C)OCC1OC(N2C=CC(N)NC2=O)CC1F` (stereo not given), for which the EC50 was 1.12 µM and the IC50 amounted to 87.1 µM.

Take `COCCN1CC(=O)N2Cc3ccccc3CN2C(=O)C1`: the outcome was inactive and the half-maximal inhibitory concentration (IC50) was more than 200 µM.

With `CCCCCCCCCCCCCCOCCS(=O)(=O)O`, the EC50 was more than 200 µM and the IC50 worked out at 52.5 µM.

For `O=C(OCc1ccccc1)N1C[C@@H](OCc2ccccc2)[C@@H](OCc2ccccc2)[C@H]1CO`, the EC50 is more than 200 µM and the IC50 worked out at 10.7 µM.

Regarding `COC1/C=C/OC2(C)Oc3c(C)c(O)c4c(O)c(c(/C=N/N(c5ccccc5)c5ccccc5)c(O)c4c3C2=O)NC(=O)C(C)=C/C=C/C(C)C(O)C(C)C(O)C(C)C(OC(C)=O)C1C` (stereo not given), the EC50 is more than 200 µM and the IC50 is 7.41 µM.

Take `O=[N+]([O-])c1ccc(C[P+](c2ccccc2)(c2ccccc2)c2ccccc2)cc1`: the EC50 is more than 200 µM; the IC50 is 87.1 µM and 40.7 µM.

Regarding `O=C1c2cccc3cccc(c23)C(=O)N1CC1CCCO1` (stereo not given), the outcome was inactive.

For `CCC(C)[C@@H]1NC(=O)[C@@H]2CCCN2C(=O)C(CC(O)CCl)OC(=O)CCNC(=O)[C@H](C)N(C)C(=O)[C@H](C(C)C)N(C)C1=O` (stereo not given in full) (HELM PEPTIDE1{[CCC(C)[C@H](N[*:1])C(=O)[*:2]].[meV].[meA].[bAla].[O=C(C(CC(O)CCl)O[*:1])[*:2]].P}$PEPTIDE1,PEPTIDE1,1:R1-6:R2$$$V2.0), the EC50 was more than 2 µM and the IC50 worked out at 0.11 µM.

For `O=C(NCCCCCCCCNC(=O)c1cc(O)c(O)c(O)c1)c1cc(O)c(O)c(O)c1`, the EC50 was more than 100 µM and the IC50 was found to be 13.8 µM.

On to `CC[C@@H]1C[C@@H]2CN3CCc4c([nH]c5ccc(OC)cc45)C(COC(=O)c4ccc(OC)c(OC)c4)(C2)C13`, for which the result was inactive.

Take `Cc1ccc(N2C(=O)N(c3ccc(C)cc3)C3(Sc4ccccc4N3C)C2=O)cc1` (stereo not given): the EC50 is more than 12.6 µM and the IC50 was more than 12.6 µM.

With `Cc1c(C(=O)O)cc2n(c1=O)Cc1cc3ccccc3nc1-2`, the EC50 was more than 10 µM and the IC50 was more than 10 µM.

With `NC(CCC(=O)NC(CS)C(=O)NCC(=O)O)C(=O)O` (stereo not given), the EC50 is more than 288 µM and the IC50 is more than 288 µM.

`CC1=Nc2ccccc2S/C1=C1/C=NC(=NC#N)N=C1C(=O)Nc1cccc(Cl)c1`: the EC50 was more than 83.2 µM and the IC50 was more than 83.2 µM.

In the case of `Nc1ncnc2c1N=CN(Oc1ccccc1)N2`, the result was inactive.

As for `CCOC(OCC)c1ccccc1.[C-]#[O+].[C-]#[O+].[C-]#[O+].[Cr]`, the EC50 is more than 20 µM and the IC50 came to 2.04 µM.

In the case of `CCCCCCCCCCCCCCCCCCNC(=S)NC=C(C(N)=O)C(N)=O`, the EC50 was more than 100 µM and the IC50 was more than 100 µM.

As for `O=C(/C=C/c1ccccc1)Nc1ccccc1SCCCCl`, the EC50 was more than 200 µM and the IC50 is 9.55 µM.

As for `CC(Cl)CN1COc2c3c(c4ccccc4c2C1)CN(CC(C)Cl)CO3` (stereo not given), the EC50 is more than 91.2 µM and the IC50 was 27.5 µM.

Regarding `O=C1c2ccccc2C(=O)N1N1CC1c1ccccc1` (stereo not given), the EC50 is more than 200 µM and the IC50 is 138 µM.

In the case of `C/C(=N\Nc1ncnc2ccccc12)c1ccccn1`, the EC50 is more than 0.2 µM and the concentration for half-maximal inhibition (IC50) turned out to be 0.0257 µM.

As to `COC(=O)CCC(=O)N1Cc2cc(C)ccc2N(C(=O)CCC(=O)OC)Cc2cc(C)ccc21`, the outcome was inactive.
